# Assay results published in patent publication US20170291905A1, “ARGININE […] INHIBITORS AND USES THEREOF” (Epizyme, Inc., priority 2014, published 2017).
# Target: T1, PRMT1 (Homo sapiens, UniProt Q99873)
# T1 construct: host or cells: RKO cells
# Test: RKO methylation assay, In Cell Western (ICW) for mono-methyl arginine and DNA content
# Type: cell-based
# Conditions: RKO cells, 72 hours, mono-methyl arginine signal normalised to DRAQ5, percent activation
# Description: RKO Methylation Assay RKO adherent cells were purchased from ATCC (American Type Culture Collection), Manassas, Va., USA. DMEM/Glutamax medium, penicillin-streptomycin, heat inactivated fetal bovine serum, 0.05% trypsin and D-PBS were purchased from Life Technologies, Grand Island, N.Y., USA. Odyssey blocking buffer, 800CW goat anti-rabbit IgG (H+L) antibody, and Licor Odyssey infrared scanner were purchased from Licor Biosciences, Lincoln, Nebr., USA. Mono-methyl arginine antibody was purchased from Cell Signaling Technology, Danvers, Mass., USA. Methanol was purchased from VWR, Franklin, Mass., USA. 10% Tween 20 was purchased from KPL, Inc., Gaithersburg, Md., USA. DRAQ5 was purchased from Biostatus Limited, Leicestershire, UK. RKO adherent cells were maintained in growth medium (DMEM/Glutamax medium supplemented with 10% v/v heat inactivated fetal bovine serum and 100 units/mL penicillin-streptomycin) and cultured at 37° C. under 5% CO2. Cell Treatment, in Cell Western (ICW) for Detection of Mono-Methyl Arginine and DNA Content. RKO cells were seeded in assay medium at a concentration of 20,000 cells per mL to a poly-D-lysine coated 384 well culture plate (BD Biosciences 356697) with 50 μL per well. Compound (100 nL) from a 96-well source plate was added directly to 384 well cell plate. Plates were incubated at 37° C., 5% CO2 for 72 hours. After three days of incubation, plates were brought to room temperature outside of the incubator for ten minutes and blotted on paper towels to remove cell media. 50 μL of ice cold 100% methanol was added directly to each well and incubated for 30 min at room temperature. After 30 min, plates were transferred to a Biotek EL406 plate washer and washed 2 times with 100 μL per well of wash buffer (1×PBS). Next 60 μL per well of Odyssey blocking buffer (Odyssey Buffer with 0.1% Tween 20 (v/v)) were added to each plate and incubated 1 hour at room temperature. Blocking buffer was removed and 20 μL per well of primary antibody was added (mono-methyl arginine diluted 1:200 in Odyssey buffer with 0.1% Tween 20 (v/v)) and plates were incubated overnight (16 hours) at 4° C. Plates were washed 5 times with 100 μL per well of wash buffer. Next 20 μL per well of secondary antibody was added (1:200 800CW goat anti-rabbit IgG (H+L) antibody, 1:1000 DRAQ5 (Biostatus limited) in Odyssey buffer with 0.1% Tween 20 (v/v)) and incubated for 1 hour at room temperature. The plates were washed 5 times with 100 μL per well wash buffer then 2 times with 100 μL per well of water. Plates were allowed to dry at room temperature then imaged on the Licor Odyssey machine which measures integrated intensity at 700 nm and 800 nm wavelengths. Both 700 and 800 channels were scanned. […] Each plate included fourteen control wells of DMSO only treatment (minimum activation) as well as fourteen control wells for maximum activation treated with 20 μM of a reference compound. The average of the ratio values for each control type was calculated and used to determine the percent activation for each test well in the plate. Reference compound was serially diluted three-fold in DMSO for a total of nine test concentrations, beginning at 20 μM. Percent activation was determined and EC30 curves were generated using triplicate wells per concentration of compound.
# T1 sequence (Q99873 whole entry): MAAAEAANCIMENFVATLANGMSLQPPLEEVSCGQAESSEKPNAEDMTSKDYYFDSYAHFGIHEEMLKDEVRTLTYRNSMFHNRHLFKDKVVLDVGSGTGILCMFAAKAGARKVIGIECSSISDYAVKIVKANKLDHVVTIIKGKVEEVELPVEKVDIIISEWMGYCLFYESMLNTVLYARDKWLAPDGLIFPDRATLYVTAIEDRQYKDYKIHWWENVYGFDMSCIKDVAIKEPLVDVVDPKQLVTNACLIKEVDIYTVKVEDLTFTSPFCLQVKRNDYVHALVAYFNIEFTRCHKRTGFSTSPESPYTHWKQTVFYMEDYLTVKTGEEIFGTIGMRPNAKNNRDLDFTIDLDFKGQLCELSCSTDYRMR
row,PRMT1 RGG ICW EC30 [nM],SMILES
1,83.01,CC[C@H]1CC[C@@H](c2n[nH]cc2CN(C)CCNC)CC1 [compound 1]
2,1388,"CCOCCOCC1(COCCOCC)CCC(c2n[nH]cc2CN(C)CCNC)CC1 [compound 39, N1-((3-(4,4-bis((2-ethoxyethoxy)methyl)cyclohexyl)-1H-pyrazol-4-yl)methyl)-N1,N2-dimethylethane-1,2-diamine]"
3,458.5,CNCCN(C)Cc1c[nH]nc1C1CCC(COCCC2CCOCC2)(COCCC2CCOCC2)CC1 [compound 40]
4,67.48,"CNCCN(C)Cc1c[nH]nc1C1CCC(COCC2CC2)(COCC2CC2)CC1 [compound 41, N1-((3-(4,4-bis((cyclopropylmethoxy)methyl)cyclohexyl)-1H-pyrazol-4-yl)methyl)-N1,N2-dimethylethane-1,2-diamine]"
5,51.41,"CN(C)CCN(C)Cc1c[nH]nc1[C@H]1CC[C@@]2(CC1)CC(C)(C)CO2 [compound 42, N1-((3-((5S,8S)-3,3-dimethyl-1-oxaspiro[4.5]decan-8-yl)-1H-pyrazol-4-yl)methyl)-N1,N2,N2-trimethylethane-1,2-diamine]"
6,622.8,"CN(C)CCN(C)Cc1c[nH]nc1[C@H]1CC[C@]2(CC1)CC(C)(C)CO2 [compound 43, N1-((3-((5r,8r)-3,3-dimethyl-1-oxaspiro[4.5]decan-8-yl)-1H-pyrazol-4-yl)methyl)-N1,N2,N2-trimethylethane-1,2-diamine]"
7,>5000,"CNCCN(C)Cc1c[nH]nc1C1CCC(CO)(CO)CC1 [compound 44, (4-(4-((methyl(2-(methylamino)ethyl)amino)methyl)-1H-pyrazol-3-yl)cyclohexane-1,1-diyl)dimethanol]"
8,185.1,"CNCCN(C)Cc1c[nH]nc1C1=CCC2(CC1)CC(C)(C)CO2 (centres unmarked) [compound 46, N1-((3-(3,3-dimethyl-1-oxaspiro[4.5]dec-7-en-8-yl)-1H-pyrazol-4-yl)methyl)-N1,N2-dimethylethane-1,2-diamine]"
9,367.1,"CCC1(CC)C[C@]2(CC[C@H](c3n[nH]cc3CN(C)CCNC)CC2)NC1=O [compound 47, (5s,8s)-3,3-diethyl-8-(4-((methyl(2-(methylamino)ethyl)amino)methyl)-1H-pyrazol-3-yl)-1-azaspiro[4.5]decan-2-one]"
10,>5000,"CCC1(CC)C[C@]2(CC[C@@H](c3n[nH]cc3CN(C)CCNC)CC2)NC1=O [compound 48, (5r,8r)-3,3-diethyl-8-(4-((methyl(2-(methylamino)ethyl)amino)methyl)-1H-pyrazol-3-yl)-1-azaspiro[4.5]decan-2-one]"
11,111.3,"CNCCN(C)Cc1ccnn1[C@H]1CC[C@@]2(CC1)CC(C)(C)CO2 [compound 49, N1-((1-((5s,8s)-3,3-dimethyl-1-oxaspiro[4.5]decan-8-yl)-1H-pyrazol-5-yl)methyl)-N1,N2-dimethylethane-1,2-diamine]"
